Where two headings read alike, the source gives them in different places.
Experiments:
[1] = target: T1, His-GST-TVMV-hRIPK1(1-324) (Homo sapiens, UniProt Q13546); assay: RIPK1 HTRF Binding Assay
T1 construct: The coding region of human RIPK1(1-324) flanked by NdeI site at 5′ end; made in house; host or cells: Spodoptera frugiperda (Sf9) insect cells, baculovirus
T1 sequence (Q13546 1-324): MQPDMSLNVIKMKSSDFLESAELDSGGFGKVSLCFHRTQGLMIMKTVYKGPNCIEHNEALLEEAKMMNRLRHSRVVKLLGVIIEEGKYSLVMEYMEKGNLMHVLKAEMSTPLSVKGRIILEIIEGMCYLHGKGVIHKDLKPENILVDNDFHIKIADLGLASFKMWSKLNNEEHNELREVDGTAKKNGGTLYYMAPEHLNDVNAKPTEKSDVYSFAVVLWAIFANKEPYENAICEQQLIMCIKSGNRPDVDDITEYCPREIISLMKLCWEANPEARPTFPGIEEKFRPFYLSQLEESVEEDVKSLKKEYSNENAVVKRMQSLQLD

[2] = test system: MLKL phosphorylation in HT29-L23 human colorectal adenocarcinoma cells; assay: MLKL Phosphorylation High-Content Assay; assay type: cell-based; conditions: Homo sapiens
In short: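 Cells incubated six hours at 37° C., then phospho-MLKL (S358) immunostained overnight at 4° C. and imaged by high-content microscopy. Phosphorylation quantified as mean circ-ring average intensity ratio; IC50 and Ymax from 4-parameter logistic fits.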

[3] = x marks IC50 class 20-200 nM, read-out: RIPK1 HTRF binding 20-200 nM
[4] = x marks IC50 class >200 nM, read-out: pMLKL cell activity >200 nM
[5] = x marks IC50 class 20-200 nM, read-out: pMLKL cell activity 20-200 nM
[6] = x marks IC50 class <20 nM, read-out: RIPK1 HTRF binding <20 nM
[7] = x marks IC50 class <20 nM, read-out: pMLKL cell activity <20 nM

| SMILES | IC50 [1, 3] | IC50 [2, 4] | IC50 [2, 5] | IC50 [1, 6] | IC50 [2, 7] |
| --- | --- | --- | --- | --- | --- |
| CCOc1ncc(-c2ccn3nc(N)nc3c2)cc1C(=O)NCc1c(F)cc(F)cc1OCC1CCCC1 [Example 13, 5-{2-Amino-[1,2,4]triazolo[1,5-a]pyridin-7-yl}-N-{[2-(cyclopentylmethoxy)-4,6-difluorophenyl]methyl}-2-ethoxypyridine-3-carboxamide] | 20 to 200 nM | > 200 nM |  |  |  |
| COc1nc(C)c(-c2ccn3nc(N)nc3c2)cc1C(=O)NCc1cccc(OC(F)F)c1 [Example 204, 5-{2-amino-[1,2,4]triazolo[1,5-a]pyridin-7-yl}-N-{[3-(difluoromethoxy)phenyl]methyl}-2-methoxy-6-methylpyridine-3-carboxamide] | 20 to 200 nM | > 200 nM |  |  |  |
| COc1ncc(-c2ccn3nc(N)nc3c2)cc1NC(=O)Cc1cccc(OC(F)(F)F)c1 [Example 415, N-(5-(2-amino-[1,2,4]triazolo[1,5-a]pyridin-7-yl)-2-methoxypyridin-3-yl)-2-(3-(trifluoromethoxy)phenyl)acetamide] | 20 to 200 nM |  | 20 to 200 nM |  |  |
| [2H]C([2H])([2H])N(Cc1cc(OC(F)(F)F)ccc1F)C(=O)c1cc(-c2ccn3nc(N)nc3c2)cnc1OC [Example 367, 5-(2-amino-[1,2,4]triazolo[1,5-a]pyridin-7-yl)-N-(2-fluoro-5-(trifluoromethoxy)benzyl)-2-methoxy-N-(methyl-d3)nicotinamide] |  |  |  | < 20 nM | < 20 nM |
| C[C@@H](NC(=O)c1cnc(Cl)c(-c2ccn3nc(N)nc3c2)c1)c1ccccc1OC(F)(F)F [Example 370, (R)-5-(2-amino-[1,2,4]triazolo[1,5-a]pyridin-7-yl)-6-chloro-N-(1-(2-(trifluoromethoxy)phenyl)ethyl)nicotinamide] |  |  | 20 to 200 nM | < 20 nM |  |
| Cc1nc(C)c(-c2ccn3nc(N)nc3c2)cc1C(=O)NCc1cc(OCC2CC2)ccc1F [Example 290, 5-(2-amino-[1,2,4]triazolo[1,5-a]pyridin-7-yl)-N-(5-(cyclopropylmethoxy)-2-fluorobenzyl)-2,6-dimethylnicotinamide] |  |  | 20 to 200 nM | < 20 nM |  |
| COc1ncc(-c2ccn3nc(N)nc3c2)cc1C(=O)NCc1cc(F)cc(F)c1OCC1CCCC1 [Example 128, 5-{2-amino-[1,2,4]triazolo[1,5-a]pyridin-7-yl}-N-{[2-(cyclopentylmethoxy)-3,5-difluorophenyl]methyl}-2-methoxypyridine-3-carboxamide] |  |  |  | < 20 nM | < 20 nM |
| Cc1ncc(-c2ccn3nc(N)nc3c2)cc1C(=O)NCc1cccnc1OCC1CCC1 [Example 233, 5-{2-amino-[1,2,4]triazolo[1,5-a]pyridin-7-yl}-N-{[2-(cyclobutylmethoxy)pyridin-3-yl]methyl}-2-methylpyridine-3-carboxamide] |  | > 200 nM |  | < 20 nM |  |
| CCOc1ncc(-c2ccn3nc(N)nc3c2)cc1C(=O)NCc1cc(F)cc(F)c1OCC1CCCC1 [Example 14, 5-{2-Amino-[1,2,4]triazolo[1,5-a]pyridin-7-yl}-N-{[2-(cyclopentylmethoxy)-3,5-difluorophenyl]methyl}-2-ethoxypyridine-3-carboxamide] |  |  | 20 to 200 nM | < 20 nM |  |
| [2H]C([2H])([2H])Oc1ncc(-c2ccn3nc(N)nc3c2)cc1C(=O)NCc1cc(OC(F)(F)F)ccc1F [Example 92, 5-{2-amino-[1,2,4]triazolo[1,5-a]pyridin-7-yl}-N-{[2-fluoro-5-(trifluoromethoxy)phenyl]methyl}-2-(deutero)methoxypyridine-3-carboxamide] |  |  |  | < 20 nM | < 20 nM |
| COc1ncc(C(=O)NCc2ccccc2OCC2CC2)cc1-c1ccn2nc(N)nc2c1 [Example 28, 5-{2-Amino-[1,2,4]triazolo[1,5-a]pyridin-7-yl}-N-{[2-(cyclopropylmethoxy)phenyl]methyl}-6-methoxypyridine-3-carboxamide] |  |  | 20 to 200 nM | < 20 nM |  |
| COc1ncc(-c2ccn3nc(N)nc3c2)cc1C(=O)NCc1cc(F)cc(F)c1OC1CCOC(C)C1 (stereo not shown) [Example 361, 5-(2-amino-[1,2,4]triazolo[1,5-a]pyridin-7-yl)-N-(3,5-difluoro-2-((2-methyltetrahydro-2H-pyran-4-yl)oxy)benzyl)-2-methoxynicotinamide] |  |  | 20 to 200 nM | < 20 nM |  |
| C[C@H](NC(=O)c1cnc(Cl)c(-c2ccn3nc(N)nc3c2)c1)c1cc(OC(F)(F)F)ccc1F [Example 371, (S)-5-(2-amino-[1,2,4]triazolo[1,5-a]pyridin-7-yl)-6-chloro-N-(1-(2-fluoro-5-(trifluoromethoxy)phenyl)ethyl)nicotinamide] |  |  | 20 to 200 nM | < 20 nM |  |
| COc1ncc(-c2ccn3nc(N)nc3c2)cc1C(=O)NCc1cc(F)ccc1OC(C)C [Example 31, 5-{2-Amino-[1,2,4]triazolo[1,5-a]pyridin-7-yl}-N-{[5-fluoro-2-(propan-2-yloxy)phenyl]methyl}-2-methoxypyridine-3-carboxamide] |  |  | 20 to 200 nM | < 20 nM |  |
| [2H]C([2H])(NC(=O)c1cc(-c2ccn3nc(N)nc3c2)cnc1C)c1cc(C(F)(F)F)ccc1F [Example 307, 5-(2-amino-[1,2,4]triazolo[1,5-a]pyridin-7-yl)-N-((2-fluoro-5-(trifluoromethyl)phenyl)methyl-H2)-2-methylnicotinamide] |  |  | 20 to 200 nM | < 20 nM |  |
| COc1ncc(-c2ccn3nc(N)nc3c2)cc1C(=O)NCCC(O)c1ccc(F)c(F)c1 (stereo not shown) [Example 77, 5-{2-Amino-[1,2,4]triazolo[1,5-a]pyridin-7-yl}-N-[3-(3,4-difluorophenyl)-3-hydroxypropyl]-2-methoxypyridine-3-carboxamide] | 20 to 200 nM |  | 20 to 200 nM |  |  |
| COc1ncc(-c2ccn3nc(N)nc3c2)cc1C(=O)NCc1ccccc1OC1CCCC1 [Example 148, 5-{2-amino-[1,2,4]triazolo[1,5-a]pyridin-7-yl}-N-{[2-(cyclopentyloxy)phenyl]methyl}-2-methoxypyridine-3-carboxamide] |  |  |  | < 20 nM | < 20 nM |
| COc1ncc(-c2ccn3nc(N)nc3c2)cc1C(=O)NCc1cccnc1OCC1CCC1 [Example 137, 5-{2-amino-[1,2,4]triazolo[1,5-a]pyridin-7-yl}-N-{[2-(cyclobutylmethoxy)pyridin-3-yl]methyl}-2-methoxypyridine-3-carboxamide] |  |  | 20 to 200 nM | < 20 nM |  |
| CCc1ncc(-c2ccn3nc(N)nc3c2)cc1C(=O)NCc1cc(OC(F)(F)F)ccc1F [Example 86, 5-{2-amino-[1,2,4]triazolo[1,5-a]pyridin-7-yl}-2-ethyl-N-{[2-fluoro-5-(trifluoromethoxy)phenyl]methyl}pyridine-3-carboxamide] |  |  | 20 to 200 nM | < 20 nM |  |
| COc1ncc(-c2ccn3nc(N)nc3c2)cc1C(=O)NCc1c(F)cccc1OC1CCC(C)C1 (stereo not shown) [Example 23, 5-{2-Amino-[1,2,4]triazolo[1,5-a]pyridin-7-yl}-N-({2-fluoro-6-[(3-methylcyclopentyl)oxy]phenyl}methyl)-2-methoxypyridine-3-carboxamide] |  |  |  | < 20 nM | < 20 nM |
| COc1ncc(-c2ccn3nc(N)nc3c2)cc1C(=O)NCc1ccccc1OCC1CCC1 [Example 149, 5-{2-amino-[1,2,4]triazolo[1,5-a]pyridin-7-yl}-N-{[2-(cyclobutylmethoxy)phenyl]methyl}-2-methoxypyridine-3-carboxamide] |  |  |  | < 20 nM | < 20 nM |
| Cc1nc(C)c(-c2ccn3nc(N)nc3c2)cc1C(=O)NCc1ccccc1OCC1CC1 [Example 185, 5-{2-amino-[1,2,4]triazolo[1,5-a]pyridin-7-yl}-N-{[2-(cyclopropylmethoxy)phenyl]methyl}-2,6-dimethylpyridine-3-carboxamide] |  |  |  | < 20 nM | < 20 nM |
| Cc1ncc(C(=O)NCc2c(F)cc(F)cc2OCC2CCCC2)cc1-c1ccn2nc(N)nc2c1 [Example 257, 5-{2-amino-[1,2,4]triazolo[1,5-a]pyridin-7-yl}-N{[2-(cyclopentylmethoxy)-4,6-difluorophenyl]methyl}-6-methylpyridine-3-carboxamide] | 20 to 200 nM | > 200 nM |  |  |  |
| CCOc1ncc(-c2ccn3nc(N)nc3c2)cc1C(=O)NCc1ccccc1OC(F)F [Example 271, 5-{2-amino-[1,2,4]triazolo[1,5-a]pyridin-7-yl}-N-{[2-(difluoromethoxy)phenyl]methyl}-2-ethoxypyridine-3-carboxamide] | 20 to 200 nM | > 200 nM |  |  |  |
| Cc1ncc(-c2ccn3nc(N)nc3c2)cc1C(=O)NCc1cccc(OCC(F)(F)F)c1 [Example 313, 5-(2-amino-[1,2,4]triazolo[1,5-a]pyridin-7-yl)-2-methyl-N-(3-(2,2,2-trifluoroethoxy)benzyl)nicotinamide] | 20 to 200 nM | > 200 nM |  |  |  |
| COc1ncc(-c2ccn3nc(N)nc3c2)cc1C(=O)NCc1ccccc1S(=O)(=O)N1CCCCCC1 [Example 111, 5-{2-amino-[1,2,4]triazolo[1,5-a]pyridin-7-yl}-N-{[2-(azepane-1-sulfonyl)phenyl]methyl}-2-methoxypyridine-3-carboxamide] |  | > 200 nM |  | < 20 nM |  |
